Assay results reported in publication PMC9186362, “Design and biological evaluation of substituted 5,7-dihydro-6H-indolo[2,3-c]quinolin-6-one as novel selective Haspin inhibitors” (Journal of Enzyme Inhibition and Medicinal Chemistry, 2022).

Tests used:
FGFR3 K650M = FGFR3 K650M (Homo sapiens, UniProt P22607, K650M); experiment: LanthaScreen Binding - Eu-anti-GST; conditions: read-out: Percentage of inhibition
How it was run: (§1)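 Values reflect inhibition measured at 1 μM of compound in a full-panel kinase selectivity survey; kinases reaching at least 80% inhibition were highlighted.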

PKMYT1 = PKMYT1 (Homo sapiens, UniProt Q99640); experiment: LanthaScreen Binding - Eu-anti-GST; conditions: read-out: Percentage of inhibition
How it was run: as §1

MASTL = molecular target: T1, MASTL (Homo sapiens, UniProt Q96GX5); experiment: LanthaScreen Binding - Eu-anti-GST; conditions: read-out: Percentage of inhibition
T1 construct: purchased Life Technologies (SelectScreen Whole Panel)
How it was run: as §1

KIT D820E = molecular target: T2, KIT D820E (Homo sapiens, UniProt P10721, D820E); experiment: LanthaScreen Binding - Eu-anti-GST; conditions: read-out: Percentage of inhibition
T2 construct: purchased Life Technologies (SelectScreen service)
How it was run: as §1

DDR2 N456S = molecular target: T3, DDR2 N456S (Homo sapiens, UniProt Q16832, N456S); experiment: LanthaScreen Binding - Eu-anti-GST; conditions: read-out: Percentage of inhibition
T3 construct: purchased Life Technologies
How it was run: as §1

MYLK4 = molecular target: T4, MYLK4 (Homo sapiens, UniProt Q86YV6); experiment: LanthaScreen Binding - Eu-anti-GST; conditions: read-out: Percentage of inhibition
T4 construct: purchased Life Technologies (SelectScreen Whole Panel)
How it was run: as §1

CAMK2G (CaMKII gamma) = molecular target: T5, CAMK2G (CaMKII gamma) (Homo sapiens, UniProt Q13555); experiment: LanthaScreen Binding - Eu-anti-GST; conditions: read-out: Percentage of inhibition
T5 construct: purchased Life Technologies
How it was run: as §1

NUAK2 = molecular target: T6, NUAK2 (Homo sapiens, UniProt Q9H093); experiment: LanthaScreen Binding - Eu-anti-GST; conditions: read-out: Percentage of inhibition
T6 construct: purchased Life Technologies (SelectScreen Whole Panel)
How it was run: as §1

TEK (TIE2) Y1108F = TEK (TIE2) Y1108F (Homo sapiens, UniProt Q02763, Y1108F); experiment: LanthaScreen Binding - Eu-anti-GST; conditions: read-out: Percentage of inhibition
How it was run: as §1

KIT D816V = molecular target: T7, KIT D816V (Homo sapiens, UniProt P10721, D816V); experiment: LanthaScreen Binding - Eu-anti-GST; conditions: read-out: Percentage of inhibition
T7 construct: purchased Life Technologies (SelectScreen service)
How it was run: as §1

MAP2K4 (MEK4) = molecular target: T8, MAP2K4 (MEK4) (Homo sapiens, UniProt P45985); experiment: LanthaScreen Binding - Eu-anti-GST; conditions: read-out: Percentage of inhibition
T8 construct: purchased Life Technologies (SelectScreen service)
How it was run: as §1

ALK T1151_L1152insT = molecular target: T9, ALK T1151_L1152insT (Homo sapiens, UniProt Q9UM73, INS1151T); experiment: LanthaScreen Binding - Eu-anti-GST; conditions: read-out: Percentage of inhibition
T9 construct: purchased Life Technologies
How it was run: as §1

FGFR3 G697C = molecular target: T10, FGFR3 G697C (Homo sapiens, UniProt P22607, G697C); experiment: LanthaScreen Binding - Eu-anti-GST; conditions: read-out: Percentage of inhibition
T10 construct: purchased Life Technologies
How it was run: as §1

ALK C1156Y = molecular target: T11, ALK C1156Y (Homo sapiens, UniProt Q9UM73, C1156Y); experiment: LanthaScreen Binding - Eu-anti-GST; conditions: read-out: Percentage of inhibition
T11 construct: purchased Life Technologies
How it was run: as §1

MYO3B (MYO3 beta) = molecular target: T12, MYO3B (MYO3 beta) (Homo sapiens, UniProt Q8WXR4); experiment: LanthaScreen Binding - Eu-anti-GST; conditions: read-out: Percentage of inhibition
T12 construct: purchased Life Technologies (SelectScreen Whole Panel)
How it was run: as §1

DDR1 = molecular target: T13, DDR1 (Homo sapiens, UniProt Q08345); experiment: LanthaScreen Binding - Eu-anti-GST; conditions: read-out: Percentage of inhibition
T13 construct: purchased Life Technologies
How it was run: as §1

EPHA6 = EPHA6 (Homo sapiens, UniProt Q9UF33); experiment: LanthaScreen Binding - Eu-anti-GST; conditions: read-out: Percentage of inhibition
How it was run: as §1

MKNK2 (MNK2) = MKNK2 (MNK2) (Homo sapiens, UniProt Q9HBH9); experiment: LanthaScreen Binding - Eu-anti-GST; conditions: read-out: Percentage of inhibition
How it was run: as §1

CDC7/DBF4 = molecular target: T14, CDC7/DBF4 (Homo sapiens, UniProt O00311); experiment: LanthaScreen Binding - Eu-anti-GST; conditions: read-out: Percentage of inhibition
T14 construct: purchased Life Technologies (SelectScreen service)
How it was run: as §1

DDR2 T654M = molecular target: T15, DDR2 T654M (Homo sapiens, UniProt Q16832, T654M); experiment: LanthaScreen Binding - Eu-anti-GST; conditions: read-out: Percentage of inhibition
T15 construct: purchased Life Technologies (SelectScreen service)
How it was run: as §1

GRK1 = molecular target: T16, GRK1 (Homo sapiens, UniProt Q15835); experiment: LanthaScreen Binding - Eu-anti-GST; conditions: read-out: Percentage of inhibition
T16 construct: purchased Life Technologies (SelectScreen Whole Panel)
How it was run: as §1

TLK2 = molecular target: T17, TLK2 (Homo sapiens, UniProt Q86UE8); experiment: LanthaScreen Binding - Eu-anti-GST; conditions: read-out: Percentage of inhibition
T17 construct: purchased Life Technologies (SelectScreen service)
How it was run: as §1

MAP2K6 (MKK6) = molecular target: T18, MAP2K6 (MKK6) (Homo sapiens, UniProt P52564); experiment: LanthaScreen Binding - Eu-anti-His; conditions: read-out: Percentage of inhibition
T18 construct: purchased Life Technologies (SelectScreen Whole Panel service)
Experimental: (§2) We further evaluated the selectivity profile of compound 55 on a larger panel of kinases (SelectScreen Whole Panel, Life Technologies). The inhibition profile of 55, evaluated at 1 μM, is depicted on a dendrogram on Figure 3 where kinases inhibited by a minimum of 80% are shown. A full list of the kinases tested is shown on Table S1 in supplementary information.

STK33 = molecular target: T19, STK33 (Homo sapiens, UniProt Q9BYT3); experiment: LanthaScreen Binding - Eu-anti-His; conditions: read-out: Percentage of inhibition
T19 construct: purchased Life Technologies (SelectScreen Whole Panel service)
Experimental: as §2

MAPK8 (JNK1) = molecular target: T20, MAPK8 (JNK1) (Homo sapiens, UniProt P45983); experiment: LanthaScreen Binding - Eu-anti-His; conditions: read-out: Percentage of inhibition
T20 construct: purchased Life Technologies (SelectScreen Whole Panel service)
Experimental: as §2

RIPK2 = RIPK2 (Homo sapiens, UniProt O43353); experiment: LanthaScreen Binding - Eu-anti-His; conditions: read-out: Percentage of inhibition
Experimental: as §2

[1] = system: U-2 OS, HCT116, MDA-MB231, SH-SY5Y and RPE-1 cell lines; experiment: Cell viability primary screen at 25 μM; type: cell-based, human; conditions: 48 h
Experimental: (§3) HCT116 cells were cultured in McCoy’s medium. SH-SY5Y, MDA-MB231 and U-2 OS cells were cultured in Dulbecco's modified Eagle's medium (DMEM) and hTERT RPE-1 cells in DMEM:F12 medium. All media were supplemented with 10% foetal calf serum and cells were cultured at 37 °C in a 5% CO2 humidified atmosphere.
(§4) Cell viability was then assessed using the CellTiter96 AQueous cell proliferation assay from Promega according to the manufacturer’s instructions. Each experiment was done in triplicate and EC50 were determined from the dose-response curves according to the signal given by the control (0.1% DMSO) set at 100% viability using Prism GraphPad software.

RPE1 cell line = experiment: Cell viability MTS assay, dose-response; type: cell-based; conditions: Homo sapiens, RPE-1; 48 h, MTS assay in triplicate, doses up to 50 µM
Experimental: as §3, §4

U-2 OS cell line = experiment: Cell viability MTS assay, dose-response; type: cell-based; conditions: Homo sapiens, U2OS; 48 h, MTS assay in triplicate, doses up to 50 µM
Experimental: as §3, §4

U-2 OS spheroids = experiment: 3D spheroid viability; type: cell-based, human; conditions: 2.5, 5 and 10 µM single dose, 7 days
Experimental: (§5) U-2 OS cells were seeded at 5000 cells per well and HCT116 at 1500 cells per well, in 96-well black ULA plates (Ultra Low Adherence, Corning). After centrifugation at 200 g for 10 min, spheroids were incubated at 37 °C for 3 days in order to reach 400 µm in diameter. Compounds were then added at a single dose (2.5, 5, or 10 μM) and cell viability was measured after 7 days using the CellTiter-Glo® 3D Cell Viability Assay (Promega) following the manufacturer's protocol. Luminescence was measured using an EnVision® plate reader (Perkin Elmer).

HCT116 spheroids = experiment: 3D spheroid viability; type: cell-based, human; conditions: 2.5, 5 and 10 µM single dose, 7 days
Experimental: as §5

T1 sequence (Q96GX5 whole entry): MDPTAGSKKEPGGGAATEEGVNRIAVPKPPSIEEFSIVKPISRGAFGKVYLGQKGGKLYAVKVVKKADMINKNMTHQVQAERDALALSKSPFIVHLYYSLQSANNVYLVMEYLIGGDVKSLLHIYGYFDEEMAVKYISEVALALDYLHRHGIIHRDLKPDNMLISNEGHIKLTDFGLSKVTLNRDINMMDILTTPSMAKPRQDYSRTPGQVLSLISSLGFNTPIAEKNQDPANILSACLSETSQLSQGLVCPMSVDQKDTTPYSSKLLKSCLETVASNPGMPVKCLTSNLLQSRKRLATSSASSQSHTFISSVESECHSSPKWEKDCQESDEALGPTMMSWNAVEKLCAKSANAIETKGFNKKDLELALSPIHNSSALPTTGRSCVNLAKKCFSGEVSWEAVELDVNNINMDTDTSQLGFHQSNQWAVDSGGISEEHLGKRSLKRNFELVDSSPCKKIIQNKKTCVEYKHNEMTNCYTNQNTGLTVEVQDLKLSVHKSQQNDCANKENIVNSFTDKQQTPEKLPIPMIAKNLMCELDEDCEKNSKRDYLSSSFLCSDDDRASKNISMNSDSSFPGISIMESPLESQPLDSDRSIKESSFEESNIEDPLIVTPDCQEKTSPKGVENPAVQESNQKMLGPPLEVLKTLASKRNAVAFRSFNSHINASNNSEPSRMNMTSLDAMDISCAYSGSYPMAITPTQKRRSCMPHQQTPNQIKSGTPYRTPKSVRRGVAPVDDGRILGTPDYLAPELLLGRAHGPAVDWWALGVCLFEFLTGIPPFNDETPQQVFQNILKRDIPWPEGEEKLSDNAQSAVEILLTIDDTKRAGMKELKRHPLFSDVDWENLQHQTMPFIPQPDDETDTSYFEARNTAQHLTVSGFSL
Sequence of PKMYT1 (Q99640 whole entry): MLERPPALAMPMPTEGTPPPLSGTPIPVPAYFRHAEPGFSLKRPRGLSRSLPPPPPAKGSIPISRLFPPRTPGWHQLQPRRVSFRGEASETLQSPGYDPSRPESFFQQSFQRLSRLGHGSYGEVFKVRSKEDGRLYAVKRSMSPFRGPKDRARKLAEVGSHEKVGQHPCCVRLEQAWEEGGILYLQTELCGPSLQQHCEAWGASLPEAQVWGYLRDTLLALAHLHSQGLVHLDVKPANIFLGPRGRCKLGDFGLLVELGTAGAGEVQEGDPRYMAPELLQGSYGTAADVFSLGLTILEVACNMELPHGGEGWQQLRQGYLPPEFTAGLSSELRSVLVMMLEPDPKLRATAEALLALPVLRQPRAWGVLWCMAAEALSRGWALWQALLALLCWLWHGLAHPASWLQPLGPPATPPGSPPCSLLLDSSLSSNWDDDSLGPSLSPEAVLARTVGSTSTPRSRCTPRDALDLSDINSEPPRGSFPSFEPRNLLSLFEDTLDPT
Sequence of FGFR3 K650M (P22607 23-806 K650M): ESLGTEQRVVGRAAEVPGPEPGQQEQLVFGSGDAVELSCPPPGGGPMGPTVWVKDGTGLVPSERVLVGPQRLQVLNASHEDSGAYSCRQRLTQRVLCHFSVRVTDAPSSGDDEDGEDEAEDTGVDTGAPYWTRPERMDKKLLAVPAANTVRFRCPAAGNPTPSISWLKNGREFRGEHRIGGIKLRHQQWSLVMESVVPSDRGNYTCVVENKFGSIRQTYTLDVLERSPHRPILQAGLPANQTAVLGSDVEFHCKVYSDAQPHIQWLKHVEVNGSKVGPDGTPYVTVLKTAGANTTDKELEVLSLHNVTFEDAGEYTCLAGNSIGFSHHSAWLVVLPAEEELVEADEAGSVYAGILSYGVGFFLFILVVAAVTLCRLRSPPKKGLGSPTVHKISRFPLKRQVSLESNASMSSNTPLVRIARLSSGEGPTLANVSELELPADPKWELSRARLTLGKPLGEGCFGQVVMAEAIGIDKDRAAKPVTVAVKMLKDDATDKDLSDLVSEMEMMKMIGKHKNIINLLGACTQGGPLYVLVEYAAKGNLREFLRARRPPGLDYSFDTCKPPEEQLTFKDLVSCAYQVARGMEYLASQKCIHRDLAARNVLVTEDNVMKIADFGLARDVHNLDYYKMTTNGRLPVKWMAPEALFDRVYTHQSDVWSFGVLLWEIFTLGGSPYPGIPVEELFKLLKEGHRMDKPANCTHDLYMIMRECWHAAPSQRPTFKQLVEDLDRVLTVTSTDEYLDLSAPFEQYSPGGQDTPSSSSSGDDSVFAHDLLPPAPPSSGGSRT
T4 sequence (Q86YV6 whole entry): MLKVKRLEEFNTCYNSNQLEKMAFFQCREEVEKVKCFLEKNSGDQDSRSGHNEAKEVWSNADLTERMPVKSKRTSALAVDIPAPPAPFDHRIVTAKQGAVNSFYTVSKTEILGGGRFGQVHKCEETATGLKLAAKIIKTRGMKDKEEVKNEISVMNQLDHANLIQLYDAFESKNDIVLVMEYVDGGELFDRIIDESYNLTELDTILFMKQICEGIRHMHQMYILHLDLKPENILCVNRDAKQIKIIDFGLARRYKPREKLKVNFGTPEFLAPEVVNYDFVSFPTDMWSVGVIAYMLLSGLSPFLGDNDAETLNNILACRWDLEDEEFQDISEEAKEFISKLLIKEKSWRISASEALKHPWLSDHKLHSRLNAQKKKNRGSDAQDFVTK
T19 sequence (Q9BYT3 whole entry): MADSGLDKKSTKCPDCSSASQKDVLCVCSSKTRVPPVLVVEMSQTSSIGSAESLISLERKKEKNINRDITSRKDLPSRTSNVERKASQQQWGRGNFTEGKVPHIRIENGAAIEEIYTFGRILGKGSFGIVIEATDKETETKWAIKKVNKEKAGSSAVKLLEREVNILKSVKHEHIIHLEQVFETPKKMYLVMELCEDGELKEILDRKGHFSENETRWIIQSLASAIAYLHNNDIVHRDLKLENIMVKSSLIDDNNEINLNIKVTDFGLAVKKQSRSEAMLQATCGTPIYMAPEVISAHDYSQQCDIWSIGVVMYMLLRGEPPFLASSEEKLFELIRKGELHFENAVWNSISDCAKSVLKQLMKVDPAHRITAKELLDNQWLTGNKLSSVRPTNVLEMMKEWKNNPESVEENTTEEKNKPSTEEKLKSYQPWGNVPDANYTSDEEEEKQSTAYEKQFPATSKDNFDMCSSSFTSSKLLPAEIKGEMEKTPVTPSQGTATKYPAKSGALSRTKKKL
T17 sequence (Q86UE8 whole entry): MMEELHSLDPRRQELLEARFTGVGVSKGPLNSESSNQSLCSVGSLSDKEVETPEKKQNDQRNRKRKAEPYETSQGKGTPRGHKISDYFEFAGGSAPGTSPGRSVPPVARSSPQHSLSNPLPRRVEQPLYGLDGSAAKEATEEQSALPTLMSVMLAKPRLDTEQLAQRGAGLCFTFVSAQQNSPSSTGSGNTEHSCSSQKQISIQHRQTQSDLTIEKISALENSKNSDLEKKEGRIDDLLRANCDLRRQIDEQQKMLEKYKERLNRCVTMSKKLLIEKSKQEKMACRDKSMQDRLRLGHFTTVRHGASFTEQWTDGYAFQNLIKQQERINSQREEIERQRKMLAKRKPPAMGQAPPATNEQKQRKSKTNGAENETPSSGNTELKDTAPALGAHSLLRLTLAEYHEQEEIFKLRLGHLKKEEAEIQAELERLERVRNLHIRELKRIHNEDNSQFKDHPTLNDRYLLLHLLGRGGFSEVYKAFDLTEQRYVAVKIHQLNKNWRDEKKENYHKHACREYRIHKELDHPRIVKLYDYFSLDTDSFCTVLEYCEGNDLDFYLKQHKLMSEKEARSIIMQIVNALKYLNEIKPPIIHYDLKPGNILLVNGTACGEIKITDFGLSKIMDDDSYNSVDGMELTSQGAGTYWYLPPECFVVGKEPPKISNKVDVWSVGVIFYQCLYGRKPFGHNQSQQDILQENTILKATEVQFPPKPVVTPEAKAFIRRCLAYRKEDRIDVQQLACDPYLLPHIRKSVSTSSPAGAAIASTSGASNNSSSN
T8 sequence (P45985 whole entry): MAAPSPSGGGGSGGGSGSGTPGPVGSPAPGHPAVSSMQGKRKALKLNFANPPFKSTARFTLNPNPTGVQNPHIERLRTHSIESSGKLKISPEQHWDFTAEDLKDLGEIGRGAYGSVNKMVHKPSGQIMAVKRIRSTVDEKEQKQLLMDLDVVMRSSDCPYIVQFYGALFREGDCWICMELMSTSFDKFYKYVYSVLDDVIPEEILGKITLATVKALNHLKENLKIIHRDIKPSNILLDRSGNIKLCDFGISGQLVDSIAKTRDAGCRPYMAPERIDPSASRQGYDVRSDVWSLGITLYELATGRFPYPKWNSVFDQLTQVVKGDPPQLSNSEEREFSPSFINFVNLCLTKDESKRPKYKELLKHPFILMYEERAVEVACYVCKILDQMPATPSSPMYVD
T20 sequence (P45983 whole entry): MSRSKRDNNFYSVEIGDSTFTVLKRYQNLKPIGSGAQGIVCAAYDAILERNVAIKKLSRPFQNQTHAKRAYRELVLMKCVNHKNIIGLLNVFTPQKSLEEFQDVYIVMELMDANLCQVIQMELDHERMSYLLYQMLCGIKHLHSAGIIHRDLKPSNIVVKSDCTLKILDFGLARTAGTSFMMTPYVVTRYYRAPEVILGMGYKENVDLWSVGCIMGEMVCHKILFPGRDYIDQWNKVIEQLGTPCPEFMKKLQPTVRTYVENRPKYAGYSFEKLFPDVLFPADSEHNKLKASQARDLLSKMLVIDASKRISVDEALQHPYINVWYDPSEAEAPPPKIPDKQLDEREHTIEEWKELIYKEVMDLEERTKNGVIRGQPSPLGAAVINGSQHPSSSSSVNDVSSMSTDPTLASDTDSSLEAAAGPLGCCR
T18 sequence (P52564 whole entry): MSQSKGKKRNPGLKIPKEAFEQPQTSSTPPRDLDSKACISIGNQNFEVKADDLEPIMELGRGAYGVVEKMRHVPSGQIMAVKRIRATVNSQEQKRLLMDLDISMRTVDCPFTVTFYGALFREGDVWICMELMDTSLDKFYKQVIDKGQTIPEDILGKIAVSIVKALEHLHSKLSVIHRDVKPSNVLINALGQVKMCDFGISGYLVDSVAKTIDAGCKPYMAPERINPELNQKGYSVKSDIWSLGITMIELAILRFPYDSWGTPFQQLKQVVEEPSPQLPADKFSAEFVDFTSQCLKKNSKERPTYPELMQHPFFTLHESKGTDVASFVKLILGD

SMILES: COc1ccc2[nH]c3c(=O)[nH]c4ccc(O)cc4c3c2c1 [Compound 55, 2-Hydroxy-10-methoxy-5,7-dihydro-6H-indolo[2,3-c]quinolin-6-one]
- inhibition at 1 µM (FGFR3 K650M): 67%
- inhibition at 1 µM (PKMYT1): 14%
- inhibition at 1 µM (MASTL): 50%
- inhibition at 1 µM (KIT D820E): 24%
- inhibition at 1 µM (DDR2 N456S): 41%
- inhibition at 1 µM (MYLK4): 111%
- inhibition at 1 µM (CAMK2G (CaMKII gamma)): 30%
- inhibition at 1 µM (NUAK2): 53%
- inhibition at 1 µM (TEK (TIE2) Y1108F): 6%
- inhibition at 1 µM (KIT D816V): 77%
- inhibition at 1 µM (MAP2K4 (MEK4)): 26%
- inhibition at 1 µM (ALK T1151_L1152insT): 32%
- inhibition at 1 µM (FGFR3 G697C): 35%
- inhibition at 1 µM (ALK C1156Y): 34%
- inhibition at 1 µM (MYO3B (MYO3 beta)): 53%
- inhibition at 1 µM (DDR1): 5%
- inhibition at 1 µM (EPHA6): 21%
- inhibition at 1 µM (MKNK2 (MNK2)): 19%
- inhibition at 1 µM (CDC7/DBF4): 83%
- inhibition at 1 µM (DDR2 T654M): 73%
- inhibition at 1 µM (GRK1): 50%
- inhibition at 1 µM (TLK2): 88%
- inhibition at 1 µM (MAP2K6 (MKK6)): 2%
- inhibition at 1 µM (STK33): 46%
- inhibition at 1 µM (MAPK8 (JNK1)): 43%
- inhibition at 1 µM (RIPK2): 13%
- melting point: 202 to 205 °C
- Reduction of cell viability compared to the DMSO control [1]: ≥ 75%
- EC50 (RPE1 cell line): 10.7 µM
- EC50 (U-2 OS cell line): 3.4 µM
- U-2 OS spheroid cell viability (U-2 OS spheroids): marked dose-dependent effect
- HCT116 spheroid cell viability (HCT116 spheroids): marked dose-dependent effect
